# Patent publication US20240150293A1, “SPIROCYCLOHEXANE DERIVATIVES, PHARMACEUTICAL COMPOSITIONS CONTAINING THEM AND THEIR USES AS ANTI-APOPTOTIC INHIBITORS” (LES LABORATOIRES SERVIER, priority 2021, published 2024)
# Biological target: Mcl-1 protein (UniProtKB Q07820) (Homo sapiens (Human), UniProt Q07820)
# Assay: Inhibition of Mcl-1 by the fluorescence polarisation assay (Example A, Method A)
# Format: binding
# Details: fluorescence polarization assay
# Description: The relative binding potency of each compound was determined via Fluorescence Polarisation (FP). The method utilised a Fluorescein labelled ligand (Fluorescein-βAla-Ahx-A-REIGAQLRRMADDLNAQY-OH; MW 2,765) which binds to the Mcl-1 protein (such that Mcl-1 corresponds to the UniProtKB® primary accession number: Q07820) leading to an increased anisotropy measured in milli-polarisation (mP) units using a reader. The addition of a compound which binds competitively to the same site as the ligand will result in a greater proportion of unbound ligand in the system indicated by a decrease in mP units.
# An 11 point serial dilution of each compound was prepared in DMSO and 2 μl transferred into flat bottomed, low binding, 384-well plate (final DMSO concentration 5%). 38 μl of buffer containing the Fluorescein labelled ligand (final concentration 1 nM) and Mcl-1 protein (final concentration 5 nM) was then added. Buffer components were 10 mM 4-(2-hydroxyethyl)-1-piperazineethanesulfonic acid [HEPES], 150 mM NaCl, pH 7.4 with the addition of 0.05% Tween 20.
# Assay plates were incubated for 2 hours at room temperature before FP was measured on a […] Synergy Neo reader ([…], Cut off 510 nm) and mP units calculated. The binding of increasing doses of test compound was expressed as a percentage reduction in mP compared to a window established between ‘5% DMSO only’ and ‘100% inhibition’ controls. 11-point dose response curves were plotted with XL-Fit software using a 4-Parameter Logistic Model (Sigmoidal Dose-Response Model) and the inhibitory concentrations that gave a 50% reduction in mP (IC50) were determined. The Ki values were determined from the IC50 values according to Cer et al, Nucleic Acids Res, 2009, 37 (WebServer issue): W441-W445. Inhibition constants (Ki) are determined from complete binding inhibition curves (cKi) or from estimated from incomplete binding inhibition curves (eKi) in most cases due to low activity.
# Chain of Mcl-1 protein (Q07820 whole entry): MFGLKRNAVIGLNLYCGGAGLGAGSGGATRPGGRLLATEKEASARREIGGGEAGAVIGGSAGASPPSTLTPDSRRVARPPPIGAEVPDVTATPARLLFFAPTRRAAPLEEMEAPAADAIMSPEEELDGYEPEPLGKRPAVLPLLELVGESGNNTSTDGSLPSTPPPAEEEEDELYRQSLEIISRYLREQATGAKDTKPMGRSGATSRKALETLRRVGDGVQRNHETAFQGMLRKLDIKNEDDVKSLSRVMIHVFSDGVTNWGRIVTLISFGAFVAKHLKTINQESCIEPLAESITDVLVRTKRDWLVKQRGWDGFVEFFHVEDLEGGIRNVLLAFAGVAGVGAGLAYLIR
row,Ki,Compound
1,14.3 µM,"O=C(O)C1(Nc2cccc(Br)c2)CCC2(CC1)c1ccccc1CC2c1nccs1 (single isomer, unassigned) [Example 223, 4-(3-bromoanilino)-2′-(1,3-thiazol-2-yl)-2′,3′-dihydrospiro[cyclohexane-1,1′-indene]-4-carboxylic acid]"
2,7.72 µM,"Cc1noc(C)c1C1Cc2ccccc2C12CCC(Nc1cccc(Br)c1)(C(=O)O)CC2 (single isomer, unassigned) [Example 231, 4-(3-bromoanilino)-2′-(3,5-dimethyl-1,2-oxazol-4-yl)-2′,3′-dihydrospiro[cyclohexane-1,1′-indene]-4-carboxylic acid]"
3,44 µM,"O=C(O)C1(Nc2cccc(Br)c2)CCC2(CC1)C(c1ccc(Cl)c(Cl)c1)=Cc1ccccc12 (single isomer, unassigned) [Example 233, 4-(3-bromoanilino)-2′-(3,4-dichlorophenyl)spiro[cyclohexane-1,1′-indene]-4-carboxylic acid]"
4,115 µM,"Cc1ccc(C2=Cc3ccccc3C23CCC(Nc2cccc(Br)c2)(C(=O)O)CC3)cc1Cl (single isomer, unassigned) [Example 234, 4-(3-bromoanilino)-2′-(3-chloro-4-methylphenyl)spiro[cyclohexane-1,1′-indene]-4-carboxylic acid]"
5,136 µM,"Cc1cc(C2=Cc3ccccc3C23CCC(Nc2cccc(Br)c2)(C(=O)O)CC3)ccc1Cl (single isomer, unassigned) [Example 235, 4-(3-bromoanilino)-2′-(4-chloro-3-methylphenyl)spiro[cyclohexane-1,1′-indene]-4-carboxylic acid]"
6,27.1 µM,"O=C(O)C1(Nc2cccc(Br)c2)CCC2(CC1)C(c1cc(Cl)cc(Cl)c1)=Cc1ccccc12 (single isomer, unassigned) [Example 236, 4-(3-bromoanilino)-2′-(3,5-dichlorophenyl)spiro[cyclohexane-1,1′-indene]-4-carboxylic acid]"
7,89 µM,"COc1cc(OC)cc(C2=Cc3ccccc3C23CCC(Nc2cccc(Br)c2)(C(=O)O)CC3)c1 (single isomer, unassigned) [Example 237, 4-(3-bromoanilino)-2′-(3,5-dimethoxyphenyl)spiro[cyclohexane-1,1′-indene]-4-carboxylic acid]"
8,57.8 µM,"Cc1cc(C)cc(C2=Cc3ccccc3C23CCC(Nc2cccc(Br)c2)(C(=O)O)CC3)c1 (single isomer, unassigned) [Example 238, 4-(3-bromoanilino)-2′-(3,5-dimethylphenyl)spiro[cyclohexane-1,1′-indene]-4-carboxylic acid]"
9,1.21 µM,"COc1ccc(C2Cc3ccccc3[C@]23CC[C@@](Nc2cccc(Cl)c2)(C(=O)O)CC3)cc1C (single isomer, unassigned) [Example 242, (1r,4r)-4-(3-chloroanilino)-2′-(4-methoxy-3-methylphenyl)-2′,3′-dihydrospiro[cyclohexane-1,1′-indene]-4-carboxylic acid]"
10,0.273 µM,"COc1ccc(C2Cc3ccccc3[C@]23CC[C@@](Nc2cccc(Cl)c2)(C(=O)O)CC3)cc1C (single isomer, unassigned) [Example 243, (1r,4r)-4-(3-chloroanilino)-2′-(4-methoxy-3-methylphenyl)-2′,3′-dihydrospiro[cyclohexane-1,1′-indene]-4-carboxylic acid]"
11,2.17 µM,"COc1ccc(C2Cc3ccccc3[C@]23CC[C@@](Nc2cccc(Cl)c2)(C(=O)O)CC3)c(C)c1 (single isomer, unassigned) [Example 254, (1r,4r)-4-(3-chloroanilino)-2′-(4-methoxy-2-methylphenyl)-2′,3′-dihydrospiro[cyclohexane-1,1′-indene]-4-carboxylic acid]"
12,11.6 µM,"COc1ccc(C2Cc3ccccc3[C@]23CC[C@@](Nc2cccc(Cl)c2)(C(=O)O)CC3)c(C)c1 (single isomer, unassigned) [Example 255, (1r,4r)-4-(3-chloroanilino)-2′-(4-methoxy-2-methylphenyl)-2′,3′-dihydrospiro[cyclohexane-1,1′-indene]-4-carboxylic acid]"
13,24.2 µM,"COc1ccc(C2Cc3ccccc3[C@]23CC[C@@](Nc2ccccc2)(C(=O)O)CC3)c(C)c1 (single isomer, unassigned) [Example 256, (1r,4r)-4-anilino-2′-(4-methoxy-2-methylphenyl)-2′,3′-dihydrospiro[cyclohexane-1,1′-indene]-4-carboxylic acid]"
14,40.4 µM,"COc1ccc(C2Cc3ccccc3[C@]23CC[C@@](Nc2ccccc2)(C(=O)O)CC3)c(C)c1 (single isomer, unassigned) [Example 257, (1r,4r)-4-anilino-2′-(4-methoxy-2-methylphenyl)-2′,3′-dihydrospiro[cyclohexane-1,1′-indene]-4-carboxylic acid]"
15,2.37 µM,"COc1ccc(Cl)c(C2Cc3ccccc3[C@]23CC[C@@](Nc2cccc(Cl)c2)(C(=O)O)CC3)c1 (single isomer, unassigned) [Example 258, (1r,4r)-4-(3-chloroanilino)-2′-(2-chloro-5-methoxyphenyl)-2′,3′-dihydrospiro[cyclohexane-1,1′-indene]-4-carboxylic acid]"
16,9.97 µM,"COc1ccc(Cl)c(C2Cc3ccccc3[C@]23CC[C@@](Nc2cccc(Cl)c2)(C(=O)O)CC3)c1 (single isomer, unassigned) [Example 259, (1r,4r)-4-(3-chloroanilino)-2′-(2-chloro-5-methoxyphenyl)-2′,3′-dihydrospiro[cyclohexane-1,1′-indene]-4-carboxylic acid]"
17,90.1 µM,"COc1ccc(Cl)c(C2Cc3ccccc3[C@]23CC[C@@](Nc2ccccc2)(C(=O)O)CC3)c1 (single isomer, unassigned) [Example 260, (1r,4r)-4-anilino-2′-(2-chloro-5-methoxyphenyl)-2′,3′-dihydrospiro[cyclohexane-1,1′-indene]-4-carboxylic acid]"
18,9.4 µM,"COc1ccc(Cl)c(C2Cc3ccccc3[C@]23CC[C@@](Nc2ccccc2)(C(=O)O)CC3)c1 (single isomer, unassigned) [Example 261, (1r,4r)-4-anilino-2′-(2-chloro-5-methoxyphenyl)-2′,3′-dihydrospiro[cyclohexane-1,1′-indene]-4-carboxylic acid]"
19,0.236 µM,"Cc1ccc(C2Cc3ccccc3C23CCC(Nc2cccc(Br)c2)(C(=O)O)CC3)s1 (single isomer, unassigned) [Example 262, 4-(3-bromoanilino)-2′-(5-methylthiophen-2-yl)-2′,3′-dihydrospiro[cyclohexane-1,1′-indene]-4-carboxylic acid]"
20,5.02 µM,"Cc1ccc(C2Cc3ccccc3C23CCC(Nc2cccc(Br)c2)(C(=O)O)CC3)s1 (single isomer, unassigned) [Example 263, 4-(3-bromoanilino)-2′-(5-methylthiophen-2-yl)-2′,3′-dihydrospiro[cyclohexane-1,1′-indene]-4-carboxylic acid]"
21,1.02 µM,"COc1ccc(C2Cc3ccccc3[C@]23CC[C@@](Nc2cccc(Cl)c2)(C(=O)O)CC3)c(Cl)c1 (single isomer, unassigned) [Example 268, (1r,4r)-4-(3-chloroanilino)-2′-(2-chloro-4-methoxyphenyl)-2′,3′-dihydrospiro[cyclohexane-1,1′-indene]-4-carboxylic acid]"
22,11.1 µM,"COc1ccc(C2Cc3ccccc3[C@]23CC[C@@](Nc2cccc(Cl)c2)(C(=O)O)CC3)c(Cl)c1 (single isomer, unassigned) [Example 269, (1r,4r)-4-(3-chloroanilino)-2′-(2-chloro-4-methoxyphenyl)-2′,3′-dihydrospiro[cyclohexane-1,1′-indene]-4-carboxylic acid]"
23,3.96 µM,"COc1ccc(C)c(C2Cc3ccccc3[C@]23CC[C@@](Nc2cccc(Cl)c2)(C(=O)O)CC3)c1 (single isomer, unassigned) [Example 270, (1r,4r)-4-(3-chloroanilino)-2′-(5-methoxy-2-methylphenyl)-2′,3′-dihydrospiro[cyclohexane-1,1′-indene]-4-carboxylic acid]"
24,12.5 µM,"COc1ccc(C)c(C2Cc3ccccc3[C@]23CC[C@@](Nc2cccc(Cl)c2)(C(=O)O)CC3)c1 (single isomer, unassigned) [Example 271, (1r,4r)-4-(3-chloroanilino)-2′-(5-methoxy-2-methylphenyl)-2′,3′-dihydrospiro[cyclohexane-1,1′-indene]-4-carboxylic acid]"
25,0.127 µM,"COc1cccc(C2Cc3ccccc3[C@]23CC[C@@](Nc2cccc(Cl)c2)(C(=O)O)CC3)c1 (single isomer, unassigned) [Example 272, (1r,4r)-4-(3-chloroanilino)-2′-(3-methoxyphenyl)-2′,3′-dihydrospiro[cyclohexane-1,1′-indene]-4-carboxylic acid]"
